# Test results taken from patent publication US20030224525A1, “Enhanced photophysics of conjugated polymers” (The University of Chicago, priority 2002, published 2003).
# Experiment: Particle size by dynamic light scattering
# Format: physicochemical
# Conditions: in solution; complex 1:1 mole ratio, filtered with 100 nanometer filter
# Protocol: More striking results come from fluorescence microscopy of the polymer-surfactant complex (1:1 mole ratio). After filtration with a 100 nanometer filter, the 5×10^−5 M complex solution is perfectly clear and suitable for spectroscopic studies. However, when spread on a glass substrate (microscope slide) with a cover glass, incubated for 10 minutes at room temperature and observed under a 100×oil immerse objective, the polymer-surfactant complex consists of bright, uniform and well-defined nano-sized particles (FIG. 2A). […] The particle size was measured using dynamic light scattering methods. […] As a comparison, the measured particle size in pure MPS-PPV solution is about 9 nm with a broad gaussian distribution; while pure DOTAP solution contains particles ( presumably lipid bilayer assemblies) with a mean diameter of 57 nm, consistent with the literature value. The sizes of the polymer and complex particles are consistent with the results from fluorescence correlation spectroscopic experiments.
# Since the spectra in FIG. 1 indicated the possibility of a second complex component in the polymer-surfactant mixture, the solution emission was examined using a shorter excitation wavelength (400 nm). As shown in FIG. 3 (inset A), the solution does container a very low concentration of species emitting at 465 nm. […]
smiles,measurement,value
"CCCCCCCC/C=C\CCCCCCCC(=O)OCC(C[N+](C)(C)C)OC(=O)CCCCCCC/C=C\CCCCCCCC.[Cl-] (stereo not shown) [DOTAP, N-[1-(2,3-Dioleoyloxy)propyl]-N,N,N,-trimethylammonium chloride]",average particle size,57 nm
